From publication PMC6576746, “Rational discovery of dual-indication multi-target PDE/Kinase inhibitor for precision anti-cancer therapy using structural systems pharmacology” (PLoS Computational Biology, 2019)

Columns and labels:
Test in all cases: cells
Set-up in all cases: species or system panel of human cancer cell lines; Eurofins OncoPanel proliferation; nuclei count by high-content fluorescence imaging, 10-point dose response
SW982 = conditions: Homo sapiens, SW982, 72 h, cell count, 3 days
Outline: (§1)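 Ten half-log concentrations from 100 μM (0.1% DMSO max) applied one day post-seeding, 3-day exposure at 37°C; untreated time-zero plate for GI50. Readout is nuclear cell count by automated fluorescence imaging, giving EC50, IC50, GI50 and 0–10 activity area.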

J-RT3-T3-5 = conditions: Homo sapiens, J-RT3-T3-5, 72 h, cell count, 3 days
Outline: as §1

SU-DHL-8 = conditions: Homo sapiens, SU-DHL-8, 72 h, cell count, 3 days
Outline: as §1

HT-1080 = conditions: Homo sapiens, HT-1080, 72 h, cell count, 3 days
Outline: as §1

769-P = conditions: Homo sapiens, 769-P, 72 h, cell count, 3 days
Outline: as §1

SR = conditions: Homo sapiens, SR, 72 h, cell count, 3 days
Outline: as §1

BxPC-3 = conditions: Homo sapiens, BXPC-3, 72 h, cell count, 3 days
Outline: as §1

Hs 852.T = conditions: 72 h, cell count, 3 days
Outline: as §1

WiDr = conditions: Homo sapiens, WiDr, 72 h, cell count, 3 days
Outline: as §1

SW900 = conditions: Homo sapiens, SW900, 72 h, cell count, 3 days
Outline: as §1

5637 = conditions: 72 h, cell count, 3 days
Outline: as §1

DB = conditions: Homo sapiens, DB, 72 h, cell count, 3 days
Outline: as §1

HEL-92-1-7 = conditions: Homo sapiens, HEL 92.1.7, 72 h, cell count, 3 days
Outline: as §1

Daoy = conditions: Homo sapiens, Daoy, 72 h, cell count, 3 days
Outline: as §1

[1] = 50% of maximum possible response

IC50 (SW982; [1]): 43.7 µM | GI50 (SW982; corrected for time zero): 31.3 µM | EC50 (SW982; curve inflection point): 43.7 µM | IC50 (SU-DHL-8; [1]): 0.604 µM | GI50 (SU-DHL-8; corrected for time zero): 0.512 µM | EC50 (SU-DHL-8; curve inflection point): 0.604 µM | IC50 (HT-1080; [1]): 11.7 µM | GI50 (HT-1080; corrected for time zero): 10.9 µM | EC50 (HT-1080; curve inflection point): 11.7 µM | IC50 (BxPC-3; [1]): 89.2 µM | GI50 (BxPC-3; corrected for time zero): 78 µM | EC50 (BxPC-3; curve inflection point): 89.2 µM | IC50 (SW900; [1]): 67.6 µM | GI50 (SW900; corrected for time zero): 35.9 µM | EC50 (SW900; curve inflection point): 67.6 µM
SMILES: C[C@@H]1CC(=O)NN=C1c1ccc(NN=C(C#N)C#N)cc1 [levosimendan]
IC50 (J-RT3-T3-5; [1]): 24.4 µM | GI50 (J-RT3-T3-5; corrected for time zero): 18.4 µM | EC50 (J-RT3-T3-5; curve inflection point): 24.4 µM | IC50 (769-P; [1]): 40 µM | GI50 (769-P; corrected for time zero): 28.6 µM | EC50 (769-P; curve inflection point): 94.2 µM | IC50 (SR; [1]): 16.1 µM | GI50 (SR; corrected for time zero): 14.7 µM | EC50 (SR; curve inflection point): 15.6 µM | IC50 (Hs 852.T; [1]): 82.2 µM | GI50 (Hs 852.T; corrected for time zero): 25 µM | EC50 (Hs 852.T; curve inflection point): 82.2 µM | IC50 (WiDr; [1]): 77.6 µM | GI50 (WiDr; corrected for time zero): 70.6 µM | EC50 (WiDr; curve inflection point): 77.6 µM | IC50 5637; [1]: 64.7 µM | GI50 (5637; corrected for time zero): 53.5 µM | EC50 (5637; curve inflection point): 64.7 µM | IC50 (DB; [1]): 17.6 µM | GI50 (DB; corrected for time zero): 14.5 µM | EC50 (DB; curve inflection point): 17.6 µM | IC50 (HEL-92-1-7; [1]): 21.8 µM | GI50 (HEL-92-1-7; corrected for time zero): 17.9 µM | EC50 (HEL-92-1-7; curve inflection point): 21.8 µM | IC50 (Daoy; [1]): 16.7 µM | GI50 (Daoy; corrected for time zero): 13 µM | EC50 (Daoy; curve inflection point): 16.7 µM
